From paper PMC10572575, “Design, Synthesis, and Potent Anticancer Activity of Novel Indole-Based Bcl-2 Inhibitors” (International Journal of Molecular Sciences, 2023)

Tests used:
[1] = tested on: MCF-7 cells; assay: MTT cytotoxicity assay, MCF-7; assay type: cell-based; conditions: Homo sapiens, MCF7, 48 h, mean ± SEM of three
Protocol: (§1) MDA-231 triple-negative breast cancer cells, MCF-7 breast cancer cells, and A549 adenocarcinomic human alveolar basal epithelial cells were maintained in Roswell Park Memorial Institute media (RPMI 1640, Sigma-Aldrich, St. Louis, MO, USA) supplemented with 10% foetal bovine serum and 1% penicillin/streptomycin. HDF human dermal normal fibroblast cells were cultured in Dulbecco’s Modified Eagle Medium (DMEM, Sigma-Aldrich, Eppelheim, Germany). MCF-7 breast cancer cell line was obtained from Cell Lines Service (CLS; Eppelheim, Germany). MDA-MB-231 breast cancer cell line and A549 cancer cells were obtained from the European Collection of Authenticated Cell Cultures (ECACC; Gillingham UK). Cell lines were maintained at 37 °C in a humidified incubator with 5% CO2.
(§2) The antiproliferative activity of compounds U1–6 was assessed using the 3-[4,5-dimethylthiazol-2-yl]-2,5-diphenyl tetrazolium bromide (MTT) assay, as previously described. Cancer cell lines were seeded in 96-well flatbottom plates at a density of 10^4 cells/well for 24 h. The cells were subsequently treated with U1–6 compounds at a screening concentration of 50 µM and incubated at 37 °C for 48 h in a humidified incubator containing 5% CO2. […] DMSO was used as a negative vehicle control (1% concentration). The culture media were then removed and incubated for 2 h with fresh 200 µL culture media containing 5 mg/mL MTT. After removing the culture media and dissolving the produced formazan crystals in 100 µL DMSO, they were incubated for another 30 min at 37 °C. The produced colour was measured at 570 nm using a microplate reader (Thermo-Scientific, Vantaa, Finland). The GraphPad Prism version 9.1 software was used to generate plots of absorbance versus the compound’s concentration. Three independent repeat experiments were performed for each concentration to ensure reproducibility. IC50 values were obtained from nonlinear regression plots of absorbance versus the log concentration of the tested compounds using the GraphPad Prism software version 5.0 (San Diego, CA, USA).

[2] = tested on: A549 cells; assay: MTT cytotoxicity assay, A549; assay type: cell-based; conditions: Homo sapiens, 48 h, mean ± SEM of three
Protocol: as §1, §2

[3] = tested on: MDA-MB-231 cells; assay: MTT cytotoxicity assay, MDA-MB-231; assay type: cell-based; conditions: Homo sapiens, 48 h, mean ± SEM of three
Protocol: as §1, §2

[4] = tested on: HDF human dermal normal fibroblast cells; assay: Safety profile on HDF normal fibroblasts; assay type: cell-based; conditions: 50 µM, 24 hrs
Protocol: as §1
as §2, with “h.” for “h. The cells were subsequently treated with U1–6 compounds at a screening concentration of 50 µM and incubated at 37 °C for 48 h in a humidified incubator containing 5% CO2.”

[5] = biological target: T1, Bcl-2 protein (Homo sapiens, UniProt P10415); assay: Bim ELISA binding assay (Bcl-2–Bim binding); conditions: mean ± SEM of three, read-out: IC50 using ELISA against Bcl-2
T1 construct: purchased Thermo-Scientific BMS244-3
Protocol: A Bim-binding assay (Thermo-Scientific, Catalogue No # BMS244-3, Vienna, Austria) was performed according to previously published data. PBS solution containing 0.05% Tween-20 was used to wash a streptavidin-coated 96-well plate. For immobilisation, biotinylated Bim peptide (residues 81–106) was diluted in SuperBlock blocking solution and applied to each well. After incubation, the plate was washed with 0.5% BSA in PBS with Tween-20 solution. […] After another wash, each well received anti-His antibody with horseradish peroxidase enzyme. Following incubation and washing, O-phenylenediamine and hydrogen peroxide solution were added for colour production. A plate reader (Thermo-Scientific, Vantaa, Finland) was used to measure the optical density at 450 nm. The reduction in Bim affinity was measured using a nonlinear regression curve (GraphPad Prism. Version 5.0), which was also utilized to generate the IC50 value of Bcl-2 inhibition.

[6] = tested on: MCF-7 cells; assay: Cell cycle assay (PI flow cytometry); assay type: cell-based, human; conditions: MCF-7, 24 h, at IC50 concentration
Protocol: DMSO vehicle was used as a negative control (1% concentration). The cells were collected, centrifuged, and fixed in 70% ethanol on ice for 20 min. The fixed cells were incubated for 1 h at room temperature with staining solution ([…] propidium iodide PI, 0.05% Triton X-100, 0.1 mg/mL RNaseA). A Gallios flow cytometer (Beckman Coulter, Brea, CA, USA) was used to measure the cell cycle proportion.

[7] = tested on: MCF-7 cells; assay: Annexin-V-FITC apoptosis assay; assay type: cell-based, human; conditions: MCF-7, 24 h
Protocol: The Annexin-V-FITC apoptosis detection kit (Catalog # k101-25, Biovision, Mountain View, USA) was used for the apoptosis experiment according to previously published data. MCF-7 cells were treated with U2 compound for 24 h. The negative control was 0.1% DMSO. The cells were collected via centrifugation and resuspended in 500 µL of 1X Binding Buffer. Treated and control cells were stained with 5 µL Annexin V-FITC and 5 µL propidium iodide (PI […]) and then incubated at room temperature for 5 min in the dark. Fluorescence-activated cell sorting (FACS) was quantified via flow cytometry. Flow cytometry (excision at 488 nm; emission at 530 nm) was used to examine Annexin V-FITC binding and PI staining using the FITC signal detector and a phycoerythrin emission signal detector [71].

T1 sequence (P10415 whole entry): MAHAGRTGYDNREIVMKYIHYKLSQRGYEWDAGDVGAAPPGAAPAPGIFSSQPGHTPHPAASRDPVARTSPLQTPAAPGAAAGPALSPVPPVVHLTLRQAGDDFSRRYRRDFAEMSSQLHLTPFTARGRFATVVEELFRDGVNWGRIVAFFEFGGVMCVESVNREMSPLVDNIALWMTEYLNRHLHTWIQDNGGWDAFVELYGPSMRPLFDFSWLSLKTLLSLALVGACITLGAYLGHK

Compound | melting point [°C] | IC50 [5] [µM] | IC50 [1] [µM] | IC50 [2] [µM] | IC50 [3] [µM] | Inhibitory activity against HDF cells compared with the negative control [4] | Cell cycle effect [6] | Increase in early apoptosis compared with control untreated cells [7] [fold] | Increase in late apoptosis compared with control untreated cells [7] [fold]
Cc1cc2c(C(C)C)c(O)c(O)c(C=O)c2c(O)c1-c1c(C)cc2c(C(C)C)c(O)c(O)c(C=O)c2c1O [Gossypol, reference compound] |  |  | 4.43 ± 0.54 | 3.45 ± 0.4 | 5.5 ± 0.35 |  |  |  | 
O=C(CSc1nnc(-c2c[nH]c3ccccc23)n1-c1ccc(F)cc1)Nc1ccc(NC(=O)CN2CCOCC2)cc1 [Compound U1, 2-(4-(4-Fluorophenyl)-5-(1H-indol-3-yl)-4H-1,2,4-triazol-3-ylthio)-N-(4-(2 morpholinoacetamido)phenyl)acetamide] | 208 to 210 |  | 5.05 ± 0.8 | 13.3 ± 0.58 | 20.7 ± 0.85 | no significant change |  |  | 
COc1ccc(-n2c(SCC(=O)Nc3ccc(NC(=O)CN4CCOCC4)cc3)nnc2-c2c[nH]c3ccccc23)cc1 [Compound U2, 2-(5-(1H-Indol-3-yl)-4-(4-methoxyphenyl)-4H-1,2,4-triazol-3-ylthio)-N-(4-(2-morpholinoacetamido)phenyl)acetamide] | 173 to 175 | 1.2 ± 0.02 | 0.83 ± 0.11 | 0.73 ± 0.07 | 5.22 ± 0.55 | limited toxicity | cell cycle arrest at the G1/S phase | 43 | 111

Further lines, with some results ahead:

melting point [°C] | IC50 [5] [µM] | Compound | IC50 [1] [µM] | IC50 [2] [µM] | IC50 [3] [µM] | Inhibitory activity against HDF cells compared with the negative control [4] | Cell cycle effect [6] | Increase in early apoptosis compared with control untreated cells [7] [fold] | Increase in late apoptosis compared with control untreated cells [7] [fold]
208 to 210 |  | O=C(CSc1nnc(-c2c[nH]c3ccccc23)n1-c1ccc(Cl)cc1)Nc1ccc(NC(=O)CN2CCOCC2)cc1 [Compound U5, 2-(4-(4-Chlorophenyl)-5-(1H-indol-3-yl)-4H-1,2,4-triazol-3-ylthio)-N-(4-(2-morpholinoacetamido)phenyl)acetamide] | 34.4 ± 2.2 | 47.8 ± 3.7 | 45.1 ± 1.15 | no significant change |  |  | 
220 to 222 |  | O=C(CSc1nnc(-c2c[nH]c3ccccc23)n1-c1cccc(Cl)c1)Nc1ccc(NC(=O)CN2CCOCC2)cc1 [Compound U4, 2-(4-(3-Chlorophenyl)-5-(1H-indol-3-yl)-4H-1,2,4-triazol-3-ylthio)-N-(4-(2-morpholinoacetamido)phenyl) acetamide] | 11 ± 1.2 | 16.1 ± 1.4 | 28.4 ± 1.79 | no significant change |  |  | 
250 to 252 | 11.1 ± 0.07 | Cc1ccc(-n2c(SCC(=O)Nc3ccc(NC(=O)CN4CCOCC4)cc3)nnc2-c2c[nH]c3ccccc23)cc1 [Compound U3, 2-(5-(1H-Indol-3-yl)-4-methylphenyl-4H-1,2,4-triazol-3-ylthio)-N-(4-(2-morpholinoacetamido)phenyl)acetamide] | 1.17 ± 0.1 | 2.98 ± 0.19 | 4.07 ± 0.35 | no significant change |  |  | 
218 to 220 |  | O=C(CSc1nnc(-c2c[nH]c3ccccc23)n1-c1ccc(Cl)c(Cl)c1)Nc1ccc(NC(=O)CN2CCOCC2)cc1 [Compound U6] | 35.5 ± 2.14 | 66.5 ± 0.62 | 79.4 ± 4.04 | limited toxicity |  |  | 
